Where two headings read alike, the source gives them in different places.
What was measured:
[1] = system: Leishmania amazonensis promastigotes expressing beta-lactamase; test: microbe, parasite or virus in culture; format: cell-based; conditions: for IC50: Leishmania amazonensis, read-out: IC50 L. amaz.
[2] = system: rat skeletal muscle cell line, L6; test: cells; format: cell-based; conditions: Rattus norvegicus
[3] = system: Trypanosoma brucei brucei 427 cells; test: T. brucei culture and assay (PrestoBlue); format: cell-based; conditions: Trypanosoma brucei
[4] = system: Trypanosoma cruzi Tulahuen cells expressing beta-galactosidase; test: T. cruzi intracellular assay (beta-galactosidase, L6 host cells); conditions: for IC50: Trypanosoma cruzi, TULAHUEN
[5] = system: C. albicans (ATCC strain 90028); test: Antifungal microdilution broth assay (PrestoBlue), C. albicans; format: cell-based, Candida albicans; conditions: Candida albicans, 100 μM
Procedure: Sigma-Aldrich) was used as the base medium for testing. […] solution of morpholinepropanesulfonic acid (MOPS; Sigma-Aldrich) was added to the RPMI to a final concentration of 0.165 M for buffering (RPMI-MOPS). This medium was adjusted to a pH of 7.0 with 10 M NaOH and filter sterilized. C. albicans (ATCC strain 90028), C. [NT] strain 66032), and C. tropicalis (ATCC strain 750) were cultured on potato dextrose agar (Sigma-Aldrich) plates, and incubated at 35° C. for 24 hours. For antifungal testing, overnight colonies were adjusted to 1.5×10^3 cells/mL, hereafter referred to as the test inoculum. PrestoBlue® (Life Technologies, Invitrogen, Carlsbad, Calif.), a resazurin-based cell viability reagent that, in metabolically active cells, is reduced from blue, non-fluorescent resazurin, to red, fluorescent resorufin, was used to assess inhibition of yeast growth by the aurones. […] Following addition of aurone, plates were then incubated for 24 hours at 35° C. PrestoBlue was added to a final concentration of 10% in each well and fluorescence read at 560 nm excitation and 590 nm emission, per manufacturer instructions, using a SpectraMax M2e spectrophotometer (Molecular Devices, LLC, Sunnyvale, Calif.). To optimize the PrestoBlue reduction time, RFUs were collected at 15 minute intervals for 4 hours using a reference antifungal. […] IC50 determination was calculated using GraphPad Prism version 7.01 for Windows (GraphPad Software, Inc., La Jolla, Calif.) from the RFUs at dilution points. Calculations were made with a nonlinear regression after transforming the molar concentrations of the aurones into the logarithmic form. Graphing was accomplished utilizing the same program following a four parameter curve fitting sigmoidal plot of the data. All aurones and controls were tested in triplicate and all testing was repeated in at least three independent experiments.

[6] = Table 1, read-out: IC50 Toxicity (L6)
[7] = Table 1, mean of 2(+) independent trials, read-out: IC50 T. brucei
[8] = read-out: IC50 T. cruzi, Table 1, intracellular assay, mean of 2(+) trials (^c one trial)
[9] = read-out: IC50 T. cruzi, Table 2, intracellular assay, mean of 2(+) independent trials
[10] = ATCC90028, Table 4A, read-out: C. albicans inhibition (at 100 μM)
[11] = Table 3A, weighted means of two or more independent trials, read-out: IC50 L6
[12] = read-out: IC50 TC-I, Table 3A, weighted means of two or more independent trials
[13] = Table 3C, weighted means of two or more independent trials, read-out: IC50 L6
[14] = read-out: IC50 TC-I, Table 3C, intracellular T. cruzi, weighted means of two or more independent trials
[15] = ATCC90028, Table 4B, C. albicans, value ± spread, read-out: Percent Inhibition (at 100 μM)

Row | Structure (SMILES) | inhibition at 100 µM [5, 10] | IC50 [2, 11] | IC50 [4, 12] | further results
1 | Cc1ccccc1/C=C1\Oc2ccccc2C1=O [Aurone 9057, (Z)-2-(2-methylbenzylidene)benzofuran-3(2H)-one] |  |  |  | IC50 [1]: < 1 µM; melting point: 89 to 93 °C; IC50 [2, 6]: 99.6 µM; IC50 [3, 7]: 24.4 µM; IC50 [4, 8]: 26.3 µM; IC50 [4, 9]: 26.3 µM
2 | COc1ccc2c(c1)O/C(=C\c1cccs1)C2=O [Aurone 5001, (Z)-6-methoxy-2-(thiophen-2-ylmethylene)benzofuran-3(2H)-one] |  |  |  | IC50 [1]: 21.1 µM; Selectivity L6/La ([1]; Table 1): >4.73; melting point: 99 to 103 °C; IC50 [2, 6]: > 100 µM; IC50 [3, 7]: > 50 µM; IC50 [4, 8]: > 50 µM
3 | O=C1/C(=C/c2ccc([N+](=O)[O-])cc2)Oc2ccccc21 [Sample 2010] | 3.3% | 249 µM | 20 µM | 
4 | O=C1/C(=C/c2ccc(O)cc2)Oc2ccccc21 [Sample 9068] | 11.1% | > 100 µM | > 50 µM | 
5 | N#Cc1ccc(/C=C2\Oc3ccccc3C2=O)cc1 [Sample 2014] | 50.5% | 239 µM | 23.5 µM | 
6 | O=C1/C(=C/c2cccc(C(F)(F)F)c2)Oc2ccccc21 [Sample 9085] | 20.2% | 73.4 µM | 11.1 µM | 
7 | O=C1/C(=C/c2ccc(C(F)(F)F)cc2)Oc2ccccc21 [Sample 9084] | 17.6% | > 400 µM | 9.38 µM | 
8 | COc1cc(Br)c(/C=C2\Oc3ccccc3C2=O)cc1OC [Sample 9056] | 12.5% | > 100 µM | 36 µM | 
9 | O=C1/C(=C/c2ccc(-c3ccccc3)cc2)Oc2ccccc21 [Sample 2018] | 59.8% |  |  | IC50 [2, 13]: 298 µM; IC50 [4, 14]: 34.4 µM
10 | O=C1/C(=C/C=C/c2ccccc2)Oc2ccccc21 [Sample 2013] | 64.6% |  |  | IC50 [2, 13]: 58 µM; IC50 [4, 14]: 14.1 µM
11 | Cc1ccc(/C=C2\Oc3ccccc3C2=O)cc1 [Aurone 8c, (Z)-2-(4-methylbenzylidene)benzofuran-3(2H)-one] |  |  |  | melting point: 75 to 76 °C; IC50 ([3]; read-out: T. brucei IC50 dose): > 50 µM; activity against T. cruzi [4]: effective against T. cruzi only; IC50 ([4]; read-out: T. cruzi IC50 dose): < 10 µM
12 | COc1cc(/C=C2\Oc3ccccc3C2=O)ccc1O [Aurone 9053, (Z)-2-(4-hydroxy-3-methoxybenzylidene)benzofuran-3(2H)-one] |  |  |  | inhibition at 100 µM [5, 15]: 11.2 ± 2.2%; IC50 [1]: 2.15 µM; IC50 [2, 6]: > 200 µM; IC50 [3, 7]: > 50 µM; IC50 [4, 8]: > 50 µM; IC50 [4, 9]: > 50 µM
13 | O=C1/C(=C/c2ccccc2O)Oc2ccccc21 [Sample 9088] | 1% | > 100 µM | 18.4 µM | 
14 | COc1cccc(/C=C2\Oc3ccccc3C2=O)c1O [Aurone 9055, (Z)-2-(2-hydroxy-3-methoxybenzylidene)benzofuran-3(2H)-one] |  |  |  | inhibition at 100 µM [5, 15]: 16.7 ± 0.2%; IC50 [1]: 18.5 µM; IC50 [2, 6]: > 100 µM; IC50 [3, 7]: > 50 µM; IC50 [4, 8]: > 50 µM
15 | COc1cc(/C=C2\Oc3ccccc3C2=O)cc(OC)c1OC [Sample 2002] | 8.8% | > 100 µM | > 50 µM | 
16 | CC(C)c1ccc(/C=C2\Oc3ccccc3C2=O)cc1 [Sample 8002] | 26.6% | 89 µM | 16.6 µM | 
17 | COc1cc(OC)c2c(c1)O/C(=C\c1ccc(C)cc1)C2=O [Aurone 7000, (Z)-4,6 dimethoxy-2-(4-methylbenzalidene) benzofuran-3(2H)-one] |  |  |  | melting point: 145 to 148 °C
18 | O=C1/C(=C/c2ccc(Br)cc2)Oc2ccccc21 [Sample 2009] | 12.3% | > 100 µM | 11.4 µM | 
19 | CN(C)c1ccc(/C=C2\Oc3ccccc3C2=O)cc1 [Sample 9087] | 31.2% |  |  | IC50 [2, 13]: 144 µM; IC50 [4, 14]: 5.38 µM
20 | COc1ccc(/C=C2\Oc3ccccc3C2=O)cc1O [Aurone 9078, (Z)-2-(3-hydroxy-4-methoxybenzylidene)benzofuran-3(2H)-one] |  |  |  | inhibition at 100 µM [5, 15]: 45.6 ± 2.6%; IC50 [1]: 1.45 µM; IC50 [2, 6]: 70.7 µM; IC50 [3, 7]: 41.2 µM
21 | O=C1/C(=C/c2ccccc2C(F)(F)F)Oc2ccccc21 [Sample 9086] | 14.3% | 130 µM | 18.5 µM | 
22 | COc1cccc(/C=C2\Oc3ccccc3C2=O)c1O [Sample 9055] | 16.7% | > 100 µM | > 50 µM | 

Row | Structure (SMILES) | inhibition at 100 µM [5, 10] | IC50 [2, 11] | IC50 [4, 12] | further results
23 | CCc1ccc(/C=C2\Oc3ccccc3C2=O)cc1 [Sample 8001] | 22.8% | > 100 µM | 11.4 µM | 
24 | O=C1/C(=C/c2ccco2)Oc2ccccc21 [Sample 2023] | 88.5% |  |  | 
25 | O=C1/C(=C/c2sccc2Br)Oc2ccccc21 [Sample 9060] | 7.5% |  |  | 
26 | COc1ccc(/C=C2\Oc3ccccc3C2=O)cc1OC [Sample 2011] | 14.2% | 51.9 µM | 21.9 µM | 
27 | N#Cc1cccc(/C=C2\Oc3ccccc3C2=O)c1 [Sample 9070] | 14.7% | > 200 µM | 16.7 µM | 
28 | Cc1ccccc1/C=C1\Oc2ccccc2C1=O [Sample 9057] | 33.6% | 99.6 µM | 26.3 µM | 
29 | O=C1/C(=C/c2cccs2)Oc2cc(O)ccc21 [Sample 2901] | 46.1% |  |  | 
30 | COc1ccc2c(c1)O/C(=C\c1ccc(Br)cc1)C2=O [Sample 5005] | 22.4% |  |  | 
31 | O=C1/C(=C/c2ccccc2I)Oc2ccccc21 [Aurone 9003, (Z)-2-(2-iodobenzylidene)benzofuran-3(2H)-one] |  | > 100 µM | 15.4 µM | melting point: 145 to 148 °C; IC50 [2, 6]: > 100 µM; IC50 [3, 7]: > 50 µM; Selectivity L6/Tc ([4]; Table 1, intracellular T. cruzi IC50): >6.50; Selectivity L6/TC-I ([4]; Table 3A, estimated from highest L6 dose tested where no L6 IC50): >6.50; IC50 [4, 8]: 15.4 µM
32 | O=C1/C(=C/c2cccs2)Oc2ccccc21 [Sample 2004] | 65.9% |  |  | 
33 | Cc1cccc(/C=C2\Oc3ccccc3C2=O)c1 [Sample 9064] | 32.1% | 79.9 µM | 37.9 µM | 
34 | O=C1/C(=C/c2cccc([N+](=O)[O-])c2)Oc2ccccc21 [Sample 2015] | 2.2% | 226 µM | 22.6 µM | 
35 | COc1ccc2c(c1)O/C(=C\c1ccc(C)cc1)C2=O [Sample 5002] | 37.6% |  |  | 
36 | Cc1ccc(/C=C2\Oc3ccc(Br)cc3C2=O)cc1 [Sample 6000] | 6.1% |  |  | 
37 | N#Cc1ccc(/C=C2\Oc3cc(O)ccc3C2=O)cc1 [Sample 9076] | 7.5% |  |  | 
38 | O=C1/C(=C/c2ncc[nH]2)Oc2ccccc21 [Sample 2026] | 43.8% |  |  | 
39 | COc1cc(OC)c2c(c1)O/C(=C\c1ccc(C)cc1)C2=O [Sample 7000] | 45.6% |  |  | 
40 | O=C1/C(=C/c2cc(Br)c(Br)s2)Oc2ccccc21 [Sample 9050] | 37.4% |  |  | 
41 | COc1ccc(/C=C2\Oc3ccccc3C2=O)c(OC)c1OC [Sample 2001] | 21.9% | > 100 µM | > 50 µM | 
42 | COc1ccc(/C=C2\Oc3ccccc3C2=O)cc1O [Sample 9078] | 45.6% | 70.7 µM |  | 
43 | O=C1/C(=C/c2ccc(Br)cc2)Oc2cc(O)ccc21 [Sample 2905] | 16.6% |  |  | 
44 | COc1cc(/C=C2\Oc3ccccc3C2=O)ccc1O [Sample 9053] | 11.2% | > 200 µM | > 50 µM | 

Source: patent US20200399238A1, “THERAPEUTIC AURONES” (MIDDLE TENNESSEE STATE UNIVERSITY, priority 2016, published 2020)
